Data as given in US20070232609A1, “Novel Antiparasitic Combination of Active Compounds” (BAYER HEALTHCARE AG, priority 2004, published 2007).

Tested on: Eimeria acervulina, E. maxima, E. tenella
Experiment: Cage experiment on coccidiosis/chicks
Type: in vivo
Settings: for Mortality %: day -3 to 8 (9) p.i.; for % efficacy (total score): 0% no action, 100% full action; for Dropping score / Lesion score: assessment 0 to 6
Method: The efficacy of the compounds according to the invention can be confirmed, for example, in cage experiments with the following experimental arrangement, in which the animals are treated with the respective individual components and with the mixtures of the individual components.
An active compound-containing feed is prepared such that the required amount of active compound is basically mixed with a nutritionally balanced animal feed, e.g. with the chick feed indicated below.
Cage Experiment on Coccidiosis/Chicks
8- to 12-day-old male chicks (e.g. LSL Brinkschulte/Senden) which have been reared coccidia-free receive the compounds according to the invention (test substances) in the concentration indicated in ppm with the feed from 3 days before (day −3) infection (=a.i.) until 8 (9) days after infection (=p.i.). 3 animals are kept in each cage. One or more groups of this type are employed per dose. Infection is carried out by means of a stomach tube directly into the crop with approximately 100 000 sporulated oocysts of Eimeria acervulina and with approximately 30 000 oocysts each of E. maxima and 40 000 sporulated oocysts of E. tenella. These are highly virulent strains. The exact infection dose is adjusted so that, if possible, one of three experimentally infected untreated chicks dies due to the infection. For assessment of the efficacy, the following criteria are taken into account: weight increase from the start of the experiment to the end of the experiment, death rate due to infection, macroscopic assessment of the faeces with respect to diarrhea and excretion of blood on days 5 and 7 p.i. (assessment 0 to 6), macroscopic assessment of the intestinal mucosa, in particular of the appendices (assessment 0 to 6) and the oocyst excretion as well as the proportion (in %) of the oocysts sporulating in the course of 24 hours. The number of oocysts in the faeces was determined with the aid of a McMaster counting chamber (see Engelbrecht and coworkers “Parasitologische Arbeitsmethoden in Medizin und Veterinärmedizin” [Parasitological Working Methods in Medicine and Veterinary Medicine], Akademie-Verlag, Berlin (1965)). The individual findings are related to the untreated non-infected control groups and a total score is calculated (cf. A. Haberkorn (1986), pp. 263 to 270 in Research in Avian Coccidiosis ed. L. R. McDougald, L. P. Joyner, P. L. Long, Proceedings of the Georgia Coccidiosis Conference, Nov. 18-20, 1985, Athens/Georgia USA).
In the column “ppm”, the concentration of the active compound employed in the feed is indicated in ppm.
In the column “mortality”, the percentage of the dead animals is indicated under % and the number of dead animals/animals employed in the experiment is indicated under n.
In the column “weight % of not inf. control”, the ratio of the weight of the treated animals to the weight of the non-infected control group is indicated.
In the columns “dropping scores”, “lesion score” and “oocyst control”, individual details of the action are given.
In the column “% efficacy”, the total score is assessed; 0% means no action, 100% means full action.

SMILES: FC(F)(F)c1nc2c(Cl)cc3c(c2[nH]1)OC(F)(F)C(F)(F)O3 [(I-A)*]
- Mortality n (dead animals/animals employed) (1 ppm in feed): 0/3
- Oocysts in % of inf. control (1 ppm in feed): 36.0 % of inf. control
- Weight in % of not inf. control (1 ppm in feed): 16 % of not inf. control
- Mortality % (1 ppm in feed): 0%
- % efficacy (total score) (1 ppm in feed): 15.7%
- Dropping score (1 ppm in feed): 6
- Lesion score (1 ppm in feed): 6
- Mortality n (dead animals/animals employed) (2.5 ppm in feed): 0/3
- Oocysts in % of inf. control (2.5 ppm in feed): 80.7 % of inf. control
- Weight in % of not inf. control (2.5 ppm in feed): 41 % of not inf. control
- Mortality % (2.5 ppm in feed): 0%
- % efficacy (total score) (2.5 ppm in feed): 12.3%
- Dropping score (2.5 ppm in feed): 6
- Lesion score (2.5 ppm in feed): 6

SMILES: N#CC(c1ccc(Cl)cc1)c1c(Cl)cc(-n2ncc(=O)[nH]c2=O)cc1Cl (stereo not shown) [Diclazuril]
- Mortality n (dead animals/animals employed) (0.05 ppm in feed): 0/3
- Oocysts in % of inf. control (0.05 ppm in feed): 17.0 % of inf. control
- Weight in % of not inf. control (0.05 ppm in feed): 86 % of not inf. control
- Mortality % (0.05 ppm in feed): 0%
- % efficacy (total score) (0.05 ppm in feed): 69.3%
- Dropping score (0.05 ppm in feed): 0
- Lesion score (0.05 ppm in feed): 0
- Mortality n (dead animals/animals employed) (0.1 ppm in feed): 0/3
- Oocysts in % of inf. control (0.1 ppm in feed): 14.0 % of inf. control
- Weight in % of not inf. control (0.1 ppm in feed): 92 % of not inf. control
- Mortality % (0.1 ppm in feed): 0%
- % efficacy (total score) (0.1 ppm in feed): 77.0%
- Dropping score (0.1 ppm in feed): 0-2
- Lesion score (0.1 ppm in feed): 0
